In PMC11992128, “Inhibition of Rho GEFs attenuates pulmonary fibrosis through suppressing myofibroblast activation and reprogramming profibrotic macrophages” (Cell Death & Disease, 2025):

Key:
[1] = target: T1, DH/PH domain of LARG (Leukemia-associated RhoGEF); ARHGEF12(765-1138aa) (Homo sapiens, UniProt Q9NZN5); test: CETSA, NIH/3T3 expressing the GST-tagged domain, Western blot; format: cell-based; details: 75 μM GL-V9, 3 h
T1 construct: DH/PH domain; GST-ARHGEF12(765-1138aa) by lentivirus in NIH/3T3 for the cell tests
T1 sequence (Q9NZN5 765-1138): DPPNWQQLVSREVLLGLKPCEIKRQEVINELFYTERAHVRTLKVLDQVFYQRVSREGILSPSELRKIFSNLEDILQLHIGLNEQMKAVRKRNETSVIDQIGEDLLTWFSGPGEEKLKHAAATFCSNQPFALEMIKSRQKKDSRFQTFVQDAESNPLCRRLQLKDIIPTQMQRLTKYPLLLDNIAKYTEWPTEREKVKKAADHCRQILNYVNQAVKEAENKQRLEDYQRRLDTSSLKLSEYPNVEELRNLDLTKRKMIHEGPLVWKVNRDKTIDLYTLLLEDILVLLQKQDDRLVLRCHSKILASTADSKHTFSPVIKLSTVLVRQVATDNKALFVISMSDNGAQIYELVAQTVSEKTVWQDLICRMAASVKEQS

[2] = target: T1, DH/PH domain of LARG (Leukemia-associated RhoGEF); ARHGEF12(765-1138aa); test: surface plasmon resonance (Biacore S200, CM5 chip, immobilised protein); format: binding

COc1c(OCCCCN2CCCC2)cc(O)c2c(=O)cc(-c3ccccc3)oc12 [GL-V9, 5-hydroxy-8-methoxy-2-phenyl-7-(4-(pyrrolidine-1-yl)butoxy) 4H-chromen-4-one]
thermal stability [1]: GL-V9 significantly enhanced the thermal stability of the wild-type DH/PH domain
Kd [2]: 11.8 µM
